# Results: US11401271B2, “Fused heterocyclic compound, pyrazole-ring-containing fused heterocyclic compound, agricultural composition containing thereof, and method of using the composition” (SOUTH CHINA AGRICULTURAL UNIVERSITY, priority 2017, dated 2022)
# Tested on: Aphis craccivora
# Assay: whole plant or invertebrate
# Format: in vivo
# Conditions: 500 ppm; wingless adults, immersion 5 seconds, counted after 24 hours
# Summary of the method: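 Wingless adults feeding on bean sprouts were dipped with the sprouts for 5 s in 500 ppm compound in aqueous 0.05% Tween-80, air-dried, then held at 23° C. Dead aphids counted after 24 h, triplicate, with 0.05% Tween-80 as control. Mortality (%) = (control live − treated live)/control live × 100.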
row,SMILES,Aphis craccivora Mortality (%)
1,COC(=O)C1(CC(N)=O)Nc2c([S+]([O-])C(F)(F)F)c(C#N)nn2-c2c(Cl)cc(C(F)(F)F)cc21 (stereo not drawn) [d-20],100%
2,COC(=O)C1(CC(=O)OCC(F)(F)F)Nc2c([S+]([O-])C(F)(F)F)c(C#N)nn2-c2c(Cl)cc(C(F)(F)F)cc21 (stereo not drawn) [d-27],100%
3,COC(=O)C1(CC(C)=O)Nc2c([S+]([O-])C(F)(F)F)c(C#N)nn2-c2c(Cl)cc(C(F)(F)F)cc21 (stereo not drawn) [d-33],100%
4,COC(=O)C1(CBr)Nc2c([S+]([O-])C(F)(F)F)c(C#N)nn2-c2c(Cl)cc(C(F)(F)F)cc21 (stereo not drawn) [d-34],100%
5,COC(=O)C1(CC(F)(F)F)Nc2c([S+]([O-])C(F)(F)F)c(C#N)nn2-c2c(Cl)cc(C(F)(F)F)cc21 (stereo not drawn) [d-35],100%
6,CCOC(=O)C1(CC(=O)OC(C(F)(F)F)C(F)(F)F)Nc2c([S+]([O-])C(F)(F)F)c(C#N)nn2-c2c(Cl)cc(C(F)(F)F)cc21 (stereo not drawn) [d-42],100%
7,CC(=O)CC1(C(C)=O)Nc2c([S+]([O-])C(F)(F)F)c(C#N)nn2-c2c(Cl)cc(C(F)(F)F)cc21 (stereo not drawn) [d-46],100%
8,CC(=O)C1(CC(F)(F)F)Nc2c([S+]([O-])C(F)(F)F)c(C#N)nn2-c2c(Cl)cc(C(F)(F)F)cc21 (stereo not drawn) [d-48],100%
9,CC(=O)C1(CC(=O)C(F)(F)F)Nc2c([S+]([O-])C(F)(F)F)c(C#N)nn2-c2c(Cl)cc(C(F)(F)F)cc21 (stereo not drawn) [d-49],100%
10,N#Cc1nn2c(c1[S+]([O-])C(F)(F)F)NC(CC(=O)C(F)(F)F)(C(=O)C(F)(F)F)c1cc(C(F)(F)F)cc(Cl)c1-2 (stereo not drawn) [d-50],100%
11,N#Cc1nn2c(c1[S+]([O-])C(F)(F)F)NC(Cc1ccccc1)(C(=O)C(F)(F)F)c1cc(C(F)(F)F)cc(Cl)c1-2 (stereo not drawn) [d-52],100%

# Tested on: Plutella xylostella
# Assay: whole plant or invertebrate
# Format: in vivo
# Conditions: 500 ppm; 2nd-instar larvae, leaf immersion feeding
# Summary of the method: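 Cabbage leaf discs dipped 5 s in compound at 500 ppm (0.05% Tween-80 aqueous), air-dried, fed to about 35 2nd-instar larvae at 28° C., triplicate. Dead larvae counted after 24 h; mortality (%) corrected against Tween-80 control.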
row,SMILES,Plutella xylostella Mortality (%)
1,COC(=O)C1(CC(N)=O)Nc2c([S+]([O-])C(F)(F)F)c(C#N)nn2-c2c(Cl)cc(C(F)(F)F)cc21 (stereo not drawn) [d-20],100%
2,COC(=O)C1(CC(=O)OCC(F)(F)F)Nc2c([S+]([O-])C(F)(F)F)c(C#N)nn2-c2c(Cl)cc(C(F)(F)F)cc21 (stereo not drawn) [d-27],100%
3,COC(=O)C1(CC(C)=O)Nc2c([S+]([O-])C(F)(F)F)c(C#N)nn2-c2c(Cl)cc(C(F)(F)F)cc21 (stereo not drawn) [d-33],100%
4,COC(=O)C1(CBr)Nc2c([S+]([O-])C(F)(F)F)c(C#N)nn2-c2c(Cl)cc(C(F)(F)F)cc21 (stereo not drawn) [d-34],90%
5,COC(=O)C1(CC(F)(F)F)Nc2c([S+]([O-])C(F)(F)F)c(C#N)nn2-c2c(Cl)cc(C(F)(F)F)cc21 (stereo not drawn) [d-35],90%
6,CCOC(=O)C1(CC(=O)OC(C(F)(F)F)C(F)(F)F)Nc2c([S+]([O-])C(F)(F)F)c(C#N)nn2-c2c(Cl)cc(C(F)(F)F)cc21 (stereo not drawn) [d-42],100%
7,CC(=O)CC1(C(C)=O)Nc2c([S+]([O-])C(F)(F)F)c(C#N)nn2-c2c(Cl)cc(C(F)(F)F)cc21 (stereo not drawn) [d-46],95%
8,CC(=O)C1(CC(F)(F)F)Nc2c([S+]([O-])C(F)(F)F)c(C#N)nn2-c2c(Cl)cc(C(F)(F)F)cc21 (stereo not drawn) [d-48],96%
9,CC(=O)C1(CC(=O)C(F)(F)F)Nc2c([S+]([O-])C(F)(F)F)c(C#N)nn2-c2c(Cl)cc(C(F)(F)F)cc21 (stereo not drawn) [d-49],100%
10,N#Cc1nn2c(c1[S+]([O-])C(F)(F)F)NC(CC(=O)C(F)(F)F)(C(=O)C(F)(F)F)c1cc(C(F)(F)F)cc(Cl)c1-2 (stereo not drawn) [d-50],100%
11,N#Cc1nn2c(c1[S+]([O-])C(F)(F)F)NC(Cc1ccccc1)(C(=O)C(F)(F)F)c1cc(C(F)(F)F)cc(Cl)c1-2 (stereo not drawn) [d-52],100%

# Tested on: Solenopsis invicta
# Assay: whole plant or invertebrate
# Format: in vivo
# Conditions: 100 ppm; 24 h; water test tube poison-feeding
# Summary of the method: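 Fire ants fed compound by water test-tube poison-feeding at 100 ppm in aqueous 0.05% Tween-80/5% honey (from 10 g/L DMSO stock), kept at 25 °C. Live and dead ants counted at 24 and 72 h; mortality (%) calculated relative to live ants in the untreated control.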
row,SMILES,Solenopsis invicta Mortality (%) 24 h
1,COC(=O)C1(CC(N)=O)Nc2c([S+]([O-])C(F)(F)F)c(C#N)nn2-c2c(Cl)cc(C(F)(F)F)cc21 (stereo not drawn) [d-20],14%
2,COC(=O)C1(CC(=O)OCC(F)(F)F)Nc2c([S+]([O-])C(F)(F)F)c(C#N)nn2-c2c(Cl)cc(C(F)(F)F)cc21 (stereo not drawn) [d-27],14%
3,COC(=O)C1(CC(C)=O)Nc2c([S+]([O-])C(F)(F)F)c(C#N)nn2-c2c(Cl)cc(C(F)(F)F)cc21 (stereo not drawn) [d-33],26%
4,COC(=O)C1(CBr)Nc2c([S+]([O-])C(F)(F)F)c(C#N)nn2-c2c(Cl)cc(C(F)(F)F)cc21 (stereo not drawn) [d-34],25%
5,COC(=O)C1(CC(F)(F)F)Nc2c([S+]([O-])C(F)(F)F)c(C#N)nn2-c2c(Cl)cc(C(F)(F)F)cc21 (stereo not drawn) [d-35],30%
6,CCOC(=O)C1(CC(=O)OC(C(F)(F)F)C(F)(F)F)Nc2c([S+]([O-])C(F)(F)F)c(C#N)nn2-c2c(Cl)cc(C(F)(F)F)cc21 (stereo not drawn) [d-42],31%
7,CC(=O)CC1(C(C)=O)Nc2c([S+]([O-])C(F)(F)F)c(C#N)nn2-c2c(Cl)cc(C(F)(F)F)cc21 (stereo not drawn) [d-46],14%
8,CC(=O)C1(CC(F)(F)F)Nc2c([S+]([O-])C(F)(F)F)c(C#N)nn2-c2c(Cl)cc(C(F)(F)F)cc21 (stereo not drawn) [d-48],26%
9,CC(=O)C1(CC(=O)C(F)(F)F)Nc2c([S+]([O-])C(F)(F)F)c(C#N)nn2-c2c(Cl)cc(C(F)(F)F)cc21 (stereo not drawn) [d-49],29%
10,N#Cc1nn2c(c1[S+]([O-])C(F)(F)F)NC(CC(=O)C(F)(F)F)(C(=O)C(F)(F)F)c1cc(C(F)(F)F)cc(Cl)c1-2 (stereo not drawn) [d-50],26%
11,N#Cc1nn2c(c1[S+]([O-])C(F)(F)F)NC(Cc1ccccc1)(C(=O)C(F)(F)F)c1cc(C(F)(F)F)cc(Cl)c1-2 (stereo not drawn) [d-52],24%

# Same assay, conditions: 100 ppm; 72 h; water test tube poison-feeding
row,SMILES,Solenopsis invicta Mortality (%) 72 h
1,COC(=O)C1(CC(N)=O)Nc2c([S+]([O-])C(F)(F)F)c(C#N)nn2-c2c(Cl)cc(C(F)(F)F)cc21 (stereo not drawn) [d-20],100%
2,COC(=O)C1(CC(=O)OCC(F)(F)F)Nc2c([S+]([O-])C(F)(F)F)c(C#N)nn2-c2c(Cl)cc(C(F)(F)F)cc21 (stereo not drawn) [d-27],100%
3,COC(=O)C1(CC(C)=O)Nc2c([S+]([O-])C(F)(F)F)c(C#N)nn2-c2c(Cl)cc(C(F)(F)F)cc21 (stereo not drawn) [d-33],100%
4,COC(=O)C1(CBr)Nc2c([S+]([O-])C(F)(F)F)c(C#N)nn2-c2c(Cl)cc(C(F)(F)F)cc21 (stereo not drawn) [d-34],93%
5,COC(=O)C1(CC(F)(F)F)Nc2c([S+]([O-])C(F)(F)F)c(C#N)nn2-c2c(Cl)cc(C(F)(F)F)cc21 (stereo not drawn) [d-35],100%
6,CCOC(=O)C1(CC(=O)OC(C(F)(F)F)C(F)(F)F)Nc2c([S+]([O-])C(F)(F)F)c(C#N)nn2-c2c(Cl)cc(C(F)(F)F)cc21 (stereo not drawn) [d-42],100%
7,CC(=O)CC1(C(C)=O)Nc2c([S+]([O-])C(F)(F)F)c(C#N)nn2-c2c(Cl)cc(C(F)(F)F)cc21 (stereo not drawn) [d-46],90%
8,CC(=O)C1(CC(F)(F)F)Nc2c([S+]([O-])C(F)(F)F)c(C#N)nn2-c2c(Cl)cc(C(F)(F)F)cc21 (stereo not drawn) [d-48],100%
9,CC(=O)C1(CC(=O)C(F)(F)F)Nc2c([S+]([O-])C(F)(F)F)c(C#N)nn2-c2c(Cl)cc(C(F)(F)F)cc21 (stereo not drawn) [d-49],100%
10,N#Cc1nn2c(c1[S+]([O-])C(F)(F)F)NC(CC(=O)C(F)(F)F)(C(=O)C(F)(F)F)c1cc(C(F)(F)F)cc(Cl)c1-2 (stereo not drawn) [d-50],93%
11,N#Cc1nn2c(c1[S+]([O-])C(F)(F)F)NC(Cc1ccccc1)(C(=O)C(F)(F)F)c1cc(C(F)(F)F)cc(Cl)c1-2 (stereo not drawn) [d-52],100%

# Tested on: Spodoptera exigua
# Assay: whole plant or invertebrate
# Format: in vivo
# Conditions: 500 ppm; 2nd-instar larvae, leaf immersion feeding
# Summary of the method: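 Cabbage leaf discs dipped 5 s in 500 ppm compound (0.05% Tween-80 aqueous), air-dried, fed to about 35 2nd-instar larvae at 28° C, three replicates. Deaths counted at 24 h; mortality corrected against Tween-80 control.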
row,SMILES,Spodoptera exigua Mortality (%)
1,COC(=O)C1(CC(N)=O)Nc2c([S+]([O-])C(F)(F)F)c(C#N)nn2-c2c(Cl)cc(C(F)(F)F)cc21 (stereo not drawn) [d-20],100%
2,COC(=O)C1(CC(=O)OCC(F)(F)F)Nc2c([S+]([O-])C(F)(F)F)c(C#N)nn2-c2c(Cl)cc(C(F)(F)F)cc21 (stereo not drawn) [d-27],100%
3,COC(=O)C1(CC(C)=O)Nc2c([S+]([O-])C(F)(F)F)c(C#N)nn2-c2c(Cl)cc(C(F)(F)F)cc21 (stereo not drawn) [d-33],99%
4,COC(=O)C1(CBr)Nc2c([S+]([O-])C(F)(F)F)c(C#N)nn2-c2c(Cl)cc(C(F)(F)F)cc21 (stereo not drawn) [d-34],95%
5,COC(=O)C1(CC(F)(F)F)Nc2c([S+]([O-])C(F)(F)F)c(C#N)nn2-c2c(Cl)cc(C(F)(F)F)cc21 (stereo not drawn) [d-35],89%
6,CCOC(=O)C1(CC(=O)OC(C(F)(F)F)C(F)(F)F)Nc2c([S+]([O-])C(F)(F)F)c(C#N)nn2-c2c(Cl)cc(C(F)(F)F)cc21 (stereo not drawn) [d-42],100%
7,CC(=O)CC1(C(C)=O)Nc2c([S+]([O-])C(F)(F)F)c(C#N)nn2-c2c(Cl)cc(C(F)(F)F)cc21 (stereo not drawn) [d-46],90%
8,CC(=O)C1(CC(F)(F)F)Nc2c([S+]([O-])C(F)(F)F)c(C#N)nn2-c2c(Cl)cc(C(F)(F)F)cc21 (stereo not drawn) [d-48],90%
9,CC(=O)C1(CC(=O)C(F)(F)F)Nc2c([S+]([O-])C(F)(F)F)c(C#N)nn2-c2c(Cl)cc(C(F)(F)F)cc21 (stereo not drawn) [d-49],100%
10,N#Cc1nn2c(c1[S+]([O-])C(F)(F)F)NC(CC(=O)C(F)(F)F)(C(=O)C(F)(F)F)c1cc(C(F)(F)F)cc(Cl)c1-2 (stereo not drawn) [d-50],90%
11,N#Cc1nn2c(c1[S+]([O-])C(F)(F)F)NC(Cc1ccccc1)(C(=O)C(F)(F)F)c1cc(C(F)(F)F)cc(Cl)c1-2 (stereo not drawn) [d-52],100%
